Results: patent US8871772B2, “Therapeutic methods and compounds” (Ampio Pharmaceuticals, Inc., priority 2008, dated 2014)

What was measured:
Type in all cases: cell-based
endothelial cells = assay: Endothelial cell tube formation; conditions: 50 μM or 100 μM
Description: When endothelial cells are cultured on extracellular matrix protein gels in the presence of angiogenic signals, they arrange themselves into structures loosely resembling capillary blood vessels (“tube formation”). Cpd.

STTG cells = assay: Cytotoxicity on confluent STTG monolayers, cell titer assay
Description: To determine whether the decrease in cell titer signal caused by Cpd. 5 was due to the inhibition of proliferation or to cytotoxicity, STTG and AU565 cells were seeded at 10,000 cells/well in 96-well plates and grown until a confluent monolayer was obtained. Under these conditions, the cells should no longer proliferate. The culture medium was IMDM supplemented with 10% FBS. After the cells reached confluence, the culture medium was removed by aspiration and replaced with fresh medium containing the test compounds (see Table 2 below). The cell cultures were incubated for an additional 24 hours in the presence of the added compounds and then the cell titer signal was assayed by adding 20 μl Promega cell titer aqueous one reagent to each well. The plates were incubated at 37° C. for an additional 2 hours to allow the colorimetric assay to develop, and the OD of each well was determined in a microplate reader using a 530 nm filter. The OD of wells containing cell titer reagent in culture medium with no cells was subtracted from the OD of all experimental readings.
The % decrease of the total cell titer signal was determined using the following formula. ((Diluent OD−Experimental OD)/Diluent OD))×100. Data are presented in Table 2 as mean % decrease of cell titer signal of three separate experiments, plus or minus standard deviation. In the mean % decrease column, a positive number means a decrease in cell titer signal, while a negative number means an increase. The p values were calculated versus diluent controls.
This experiment was repeated, except using incubations of 18 hours, instead of 24 hours, in the presence of the compounds and 4 hours, instead of 2 hours, for color development.

MMP-9 [1] = assay: Release of MMP-9 from STTG astrocytoma cells, gelatin zymogram; conditions: data not shown
MMP-9 [2] = assay: Release of MMP-9 from primary human microglial cells, gelatin zymogram; conditions: supernatants concentrated 10×
[3] = test system: human umbilical vein endothelial cells (HUVECs); assay: Proliferation of HUVECs, Promega cell titer assay; conditions: 72 hours
Description: Assays were performed to determine the effect of Cpd. 5 on proliferation of human umbilical vein endothelial cells (HUVECs). Passage 4-5 HUVECs, human source lot number 13047 (obtained from Lonza) were put into the wells of a 96-well tissue culture plate at 1200 cells/well in 100 μl endothelial growth medium-2 (EGM-2) complete medium (obtained from Lonza). A 50 mM stock solution of Cpd. 5 was prepared in DMSO and frozen at −80° C. Aliquots of the stock solution were removed and dilutions containing from 50 μM to 300 μM Cpd. 5 were made in EGM-2 complete medium (Lonza). Controls containing equivalent amounts of DMSO to the 200 μM solution were mixed for comparative purposes. 100 μl of the resulting solutions were then added to the cells in the 96-well culture plates in triplicate and placed in a 37° C. incubator with 5% CO2 for 72 hours.
(§1) Following incubation, cell proliferation was assayed by adding 20 μl Promega cell titer aqueous one reagent to each well. Promega cell titer reagent is a solution containing a tetrazolium dye that is reduced by living cells to a formazan dye, and this reduction is proportional to the number of living cells present in the well. The plates were incubated at 37° C. for an additional 4 hours to allow the colorimetric assay to develop, and the OD of each well was determined in a microplate reader using a 530 nm filter. The OD of wells containing cell titer reagent in culture medium with no cells was subtracted from the OD of all experimental readings.
The % decrease of the total cell titer signal was determined using the following formula. ((Diluent OD−Experimental OD)/Diluent OD))×100. Data are presented in Table 7 as mean % decrease of cell titer signal of three separate experiments, plus or minus standard deviation. In the mean % decrease column, a positive number means a decrease in cell titer signal, while a negative number means an increase in cell titer signal. The p values were calculated versus diluent controls.

WM-266-4 cells = assay: Proliferation of WM-266-4 cells (separate experiment); conditions: concentration not given
Source text: As shown there, Cpd. […] It should also be noted that, in a separate experiment, Cpd.

[4] = test system: U-118 metastatic astrocytoma cell line; assay: Proliferation of U-118 cancer cells, Promega cell titer assay
Description: Assays were performed to determine the effect of Cpd. 5 on proliferation of an additional cancer cell line. This cell line was the U-118 metastatic astrocytoma cell line. It was obtained from ATCC.
To perform the assays, a 50 mM stock solution of Cpd. 5 was prepared in DMSO and frozen at −80° C. […] Controls containing equivalent amounts of DMSO to the 300 μM solution were mixed for comparative purposes. 100 μl of the resulting solutions were then added to 96 well culture plates in triplicate and placed in a 37° C. incubator with 5% CO2 to warm.
Cells were removed from passage flasks using trypsin and ethylenediaminetetracetic acid (EDTA) and counted using trypan blue to establish cell counts/ml and viability. For all experiments, viability of cells was greater than 95%. Solutions of 4,000 cells/100 μl were prepared in the medium from above, and 100 μl of the solutions were added to each well of the plates. The plates were placed back in the incubator and incubated with the compounds for 96 hours.
as §1
The % decrease of the total cell titer signal was determined using the following formula. ((Diluent OD−Experimental OD)/Diluent OD))×100. Data are presented in Table 5 as mean % decrease of cell titer signal of three separate experiments, plus or minus standard deviation. In the mean % decrease column, a positive number means a decrease in cell titer signal, while a negative number means an increase in cell titer signal. The p values were calculated versus diluent controls.
The above experiment was repeated using the U-118 cells at 3000 cells/well.

With COC(=O)C(c1ccc(-c2ccccc2)cc1)C1NC(=O)CNC1=O (stereo not shown) [Cpd. 5, biphenyl-4-yl-(3,6-dioxo-piperazin-2-yl)-acetic acid methyl ester] the “effect on tube formation” value (endothelial cells) was “no observable effect”, the “MEAN % DECREASE of cell titer signal” value (STTG cells; 10 μM, 18 hours) was 0.81% and the “MEAN % DECREASE of cell titer signal” value (STTG cells; 10 μM, 24 hours) was −7.13%. The “MEAN % DECREASE of cell titer signal” value (STTG cells; 50 μM, 18 hours) was 21.25%, the “MEAN % DECREASE of cell titer signal” value (STTG cells; 50 μM, 24 hours) was −1.76% and the “MEAN % DECREASE of cell titer signal” value (STTG cells; 100 μM, 18 hours) was 18.96%. For the same molecule, the “MEAN % DECREASE of cell titer signal” value (STTG cells; 100 μM, 24 hours) was −10.79%, the “effect on the release of MMP-9 from the STTG cells” value (MMP-9 [1]) was “no effect” and the inhibition at 100 µM (MMP-9 [2]; 100 μM, read-out: inhibition of the release of active MMP-9) was 35.9%. The “inhibition of the release of pro-MMP-9” value (MMP-9 [2]; data not shown) was “did not inhibit”, the “MEAN % DECREASE of cell titer signal” value ([3]; 25 μM) was −48.60% and the “MEAN % DECREASE of cell titer signal” value ([3]; 50 μM) was −14.44%. The “MEAN % DECREASE of cell titer signal” value ([3]; 100 μM) was 62.04%, the “inhibition of the proliferation of WM-266-4 cells” value (WM-266-4 cells) was “did not inhibit” and the “MEAN % DECREASE of cell titer signal” value ([4]; U-118, 3000 cells/well, 25 μM final) was −25.28%. For the same molecule, the “MEAN % DECREASE of cell titer signal” value ([4]; U-118, 3000 cells/well, 37.5 μM final) was −25.28%, the “MEAN % DECREASE of cell titer signal” value ([4]; U-118, 3000 cells/well, 50 μM final) was −15.63% and the “MEAN % DECREASE of cell titer signal” value ([4]; U-118, 3000 cells/well, 75 μM final) was −3.05%. The “MEAN % DECREASE of cell titer signal” value ([4]; U-118, 3000 cells/well, 100 μM final) was 20.51%, the “MEAN % DECREASE of cell titer signal” value ([4]; U-118, 3000 cells/well, 150 μM final) was 59.70% and the “MEAN % DECREASE of cell titer signal” value ([4]; U-118, 4,000 cells/well, 25 μM final, 96 hours) was −50.62%. The “MEAN % DECREASE of cell titer signal” value ([4]; U-118, 4,000 cells/well, 37.5 μM final, 96 hours) was −46.50%, the “MEAN % DECREASE of cell titer signal” value ([4]; U-118, 4,000 cells/well, 50 μM final, 96 hours) was −7.82% and the “MEAN % DECREASE of cell titer signal” value ([4]; U-118, 4,000 cells/well, 75 μM final, 96 hours) was 4.11%. For the same molecule, the “MEAN % DECREASE of cell titer signal” value ([4]; U-118, 4,000 cells/well, 100 μM final, 96 hours) was 25.93% and the “MEAN % DECREASE of cell titer signal” value ([4]; U-118, 4,000 cells/well, 150 μM final, 96 hours) was 65.84%.
With O=c1cc(N2CCOCC2)oc2c(-c3ccccc3)cccc12 [LY294002, reference compound] the “MEAN % DECREASE of cell titer signal” value (STTG cells; 50 μM, 18 hours) was 26.27%, the “MEAN % DECREASE of cell titer signal” value (STTG cells; 50 μM, 24 hours) was 26.12% and the “inhibition of the proliferation of WM-266-4 cells” value (WM-266-4 cells) was 105%. For the same molecule, the “MEAN % DECREASE of cell titer signal” value ([4]; U-118, 3000 cells/well, 40 μM final) was 86.04% and the “MEAN % DECREASE of cell titer signal” value ([4]; U-118, 4,000 cells/well, 20 μM final, 96 hours) was 19.75%.
